Results from patent publication US11865110B2, “Thrombin inhibitors, formulations, and uses thereof” (VERSEON INTERNATIONAL CORPORATION, priority 2018, dated 2024).

Tests used:
thrombin = target: T1, thrombin (Homo sapiens, UniProt P00734); test: Human Thrombin Generation Assay (TGA); assay type: biochemical; settings: concentration that reduces endogenous thrombin potential AUC by 50%; human plasma; read-out: ETP EC50
T1 construct: from tissue; host or cells: human plasma (thrombin generated in situ by tissue factor, phospholipids and CaCl2)
Protocol: Results for the human thrombin generation assay (TGA; not to be confused with “thermogravimetric analysis” which is used elsewhere and carries the same acronym. One of skill in the art will appreciate which meaning is intended based on context of the surrounding technical information.) were generated as follows. In a 96-well plate, 4 μL of 100, 33.3, 11.1, 3.7, 1.23, 0.41, 0.137, and 0.046 μM solutions of the test compounds in DMSO were added to sequential wells filled with 68 μL of a “TGA Working Solution.” See description of this solution as well as other relevant solutions below. The plate was incubated at room temperature for 10 minutes, whereupon 8 μL of warm “Substrate Solution” was added to each well, resulting in a 500 μM concentration of the substrate, Z-GGR-AMC (Z-Gly-Gly-Arg-7-amino-4-methylcoumarin·HCl), in each well. Fluorescence intensity data (Ex/Em 380/460 nm) collection began immediately using a Cytation™ or Synergy™ H1 96-well plate reader set to incubate the plate at 37° C. over the data collection time of 90 minutes following double-orbital shaking for a period of 4 seconds. Test compounds were measured parallel to blanks and controls, as well as to wells of the substrate in DMSO at various concentrations (2.50, 0.833, 0.278, 0.093 mM) in the buffers to generate a standard fluorescence curve. Data values were computed automatically, including the ETP EC50 value of the AUC, which is the concentration of the compound that reduces endogenous thrombin potential AUC by 50%.
The various solutions were prepared as follows. A HEPES/NaCl Assay buffer was made by combining 7.5 mL of 5M NaCl, 1.19 g 4-(2-hydroxyethyl)piperazine-1-ethanesulfonic acid (HEPES) and 230 mL of water. An “Innovin Master Solution” was made by combining 20 μL of Siemens Dade Innovin recombinant tissue factor and thromboplastin with 50 μL of 0.5 mM phospholipid-TGT acquired from DiaPharma® in 450 μL of the above HEPES/NaCl Assay buffer. This solution was then vortexed for a few seconds. Next the “Substrate Master Solution” was made by adding 3.2 mL DMSO to 100 mg of Z-GGR-AMC (Z-Gly-Gly-Arg-7-amino-4-methylcoumarin·HCl) and vortexing in a polystyrene tube. This solution was stored at −20° C. A “TGA Working Solution” was prepared by adding 6.2 mL of human plasma, 50 μL of the Innovin Master Solution, and 80 μL of phospholipids to 2.6 mL of HEPES/NaCl Assay buffer. A “Substrate Working Solution” was made immediately before addition to the assay plate by adding 200 μL of the above “Substrate Master Solution” to a pre-warmed (37° C.) mixture of 1.46 mL of HEPES/NaCl Assay buffer and 340 μL of 1M CaCl2).
For additional description of this assay, please see Robert, S. et al. ‘Is thrombin generation the new rapid, reliable and relevant pharmacological tool for the development of anticoagulant drugs?’2009, Pharmacol Res 59:160-6 as well as Hemker, H. C. et al. ‘Calibrated automated thrombin generation measurement in clotting plasma.’ 2003, Pathophysiol Haemost Thromb 33:4-15.

Mouse plasma stability = assay type: in vitro ADME, mouse (CD-1); settings: CD-1 mouse plasma, 37° C., time points to 160 min; read-out: Mouse Plasma Stability t1/2
Protocol: Alongside a positive control of propantheline bromide, 8 μL of a 1 mM solution of each test compound in DMSO was placed in two wells of a Nunc™ 96-well plate called the “dilution plate.” To one well, 392 μL of HyClone™ water was added and mixed by a pipette. To the other well, 392 μL of mouse or rat plasma stabilized with sodium citrate purchased from Innovative Research was added and mixed by a pipette. The dilution plate was kept covered to reduce solvent evaporation and heated in an incubator at 37° C. At each of the time points enumerated below, the plate was removed from the incubator and 50 μL of the test compound/water or test compound/plasma solutions were transferred to a unique, corresponding well in a “quench plate” (96-well Costar® plate) that contains 150 μL of a quench solution that contains an internal standard (20 uM diclofenac in acetonitrile). The dilution plate was then returned to the incubator. This process was performed at 0, 5, 10, 20, 40, 80, and 160 minutes from the original mixing of the test compounds with the water or plasma in the dilution plate. After the quenching of the 160-minute time point, the quench plate was then centrifuged at 4° C. at 1000×g for 10 minutes. 100 μL of the supernatant of each well were then transferred to corresponding unique wells in a “read plate” (96-well Costar® plate) that were filled with 100 μL of HyClone™ water. The plate was then sealed and analyzed via UHPLC using a 10-μL sample injection through a Phenomenex® Kinetex column pre-equilibrated with the loading buffer (95:5 water:acetonitrile). The parameters were as follows. Mobile Phase A: water, 0.025% formic acid. Mobile Phase B: acetonitrile, 0.025% formic acid. Flow Rate: 0.5 mL/min. […] Half-life (t1/2) times were computed by using a chi-square analysis to fit the peak areas to an exponential decay model for compound concentration as a function of time.

| SMILES | EC50 (thrombin) [nM] | half-life at 20 µM (Mouse plasma stability) [h] |
| --- | --- | --- |
| CC(C)(C)C(=O)n1nc(-c2cccn(CCC(=O)O)c2=O)cc1NCc1ccc(Cl)s1 [Compound 1, 3-[3-(5-{[(5-chlorothiophen-2-yl)methyl]amino}-1-(2,2-dimethylpropanoyl)-1H-pyrazol-3-yl)-2-oxo-1,2-dihydropyridin-1-yl]propanoic acid] | 930 to 1700 | ≥ 3 |
| O=C(O)CCn1cccc(-c2cc(NCc3ccc(Cl)s3)[nH]n2)c1=O [Compound 2, 3-[3-(5-{[(5-chlorothiophen-2-yl)methyl]amino}-1H-pyrazol-3-yl)-2-oxo-1,2-dihydropyridin-1-yl]propanoic acid] | > 100000 | ≥ 5 |
| O=C(O)Cn1cccc(-c2cc(NCc3ccc(Cl)s3)[nH]n2)c1=O [Compound 3, 2-[3-(5-{[(5-chlorothiophen-2-yl)methyl]amino}-1H-pyrazol-3-yl)-2-oxo-1,2-dihydropyridin-1-yl]acetic acid] | > 100000 | ≥ 5 |
| CC(C)(C)C(=O)n1nc(-c2cccn(CC(=O)O)c2=O)cc1NCc1ccc(Cl)s1 [Compound 4, 2-[3-(5-{[(5-chlorothiophen-2-yl)methyl]amino}-1-(2,2-dimethylpropanoyl)-1H-pyrazol-3-yl)-2-oxo-1,2-dihydropyridin-1-yl]acetic acid] | 2800 to 6200 | ≥ 5 |
| CC(C)(C)C(=O)n1nc(-c2cccn(CCCC(=O)O)c2=O)cc1NCc1ccc(Cl)s1 [Compound 5, 4-[3-(5-{[(5-chlorothiophen-2-yl)methyl]amino}-1-(2,2-dimethylpropanoyl)-1H-pyrazol-3-yl)-2-oxo-1,2-dihydropyridin-1-yl]butanoic acid] | 1400 | 3.83 |
| CC(C)(C)C(=O)n1nc(-c2cccn(CCC(N)=O)c2=O)cc1NCc1ccc(Cl)s1 [Compound 8, 3-[3-(5-{[(5-chlorothiophen-2-yl)methyl]amino}-1-(2,2-dimethylpropanoyl)-1H-pyrazol-3-yl)-2-oxo-1,2-dihydropyridin-1-yl]propanamide] | 990 | 2.67 |
| CC(C)(N)Cn1cccc(-c2cc(NCc3ccc(Cl)s3)n(C(=O)c3ccoc3)n2)c1=O [Compound 9, 1-(2-amino-2-methylpropyl)-3-(5-{[(5-chlorothiophen-2-yl)methyl]amino}-1-(furan-3-carbonyl)-1H-pyrazol-3-yl)-1,2-dihydropyridin-2-one] | 430 | 2.67 |
| CCC(C)(C)C(=O)n1nc(-c2cccn(CCC(=O)O)c2=O)cc1NCc1ccc(Cl)s1 [Compound 11, 3-[3-(5-{[(5-chlorothiophen-2-yl)methyl]amino}-1-(2,2-dimethylbutanoyl)-1H-pyrazol-3-yl)-2-oxo-1,2-dihydropyridin-1-yl]propanoic acid] | 960 | ≥ 5 |
| O=C(O)CCn1cccc(-c2cc(NCc3ccc(Cl)s3)n(C(=O)c3ccoc3)n2)c1=O [Compound 12, 3-[3-(5-{[(5-chlorothiophen-2-yl)methyl]amino}-1-(furan-3-carbonyl)-1H-pyrazol-3-yl)-2-oxo-1,2-dihydropyridin-1-yl]propanoic acid] | 1400 to 2100 | 3.67 |
